Results taken from US20230405134A1, “NOVEL PROTAC CHIMERIC COMPOUND, AND PHARMACEUTICAL COMPOSITION COMPRISING SAME FOR PREVENTING, AMELIORATING, OR TREATING DISEASES THROUGH TARGET PROTEIN DEGRADATION” (POSTECH RESEARCH AND BUSINESS DEVELOPMENT FOUNDATION, priority 2020, published 2023).
Where a SMILES comes first, the peptide text is derived from it. Bridges are numbered along the chain shown (N, C = ends). [ ]: non-standard residue; d: D form. Cha = N[C@@H](CC1CCCCC1)C(=O)O; S5 = C=CCCC[C@](C)(N)C(=O)O

Columns and labels:
E-cadherin = E-cadherin mRNA level by RT-qPCR in MDA-MB-231 cells; format: cell-based, human; settings: 12 hours
From the text: The pharmacological effects on SRC-1 dependent signal transmission were explored using the previously discovered SRC-1 degrading substance. The SRC-1 is overexpressed in various cancers and plays a pivotal role in increasing cell migration and invasion by regulating the expression of related genes. Therefore, when treated with ND1-YL2, an SRC-1 degrading substance, the expression of genes stimulated by SRC-1, such as colony stimulating factor-1 (CSF-1), a gene encoding the cytokine CSF-1 that induces cell differentiation and migration, will be suppressed. To confirm this, MDA-MB-231 cells were treated with DMSO and various concentrations of ND1-YL2, YL2 or N-degron tetrapeptide for 12 hours, and the mRNA level of CSF-1 was normalized to 18S level. Confirmation was made using quantitative real-time polymerase chain reaction (RT-qPCR). MDA-MB-231 cells were seeded at 2×10^5 cells per well. After 24 hours, compounds (YL2, RLAA or ND1-YL2) were treated in Opti-MEM medium for 12 hours. Subsequently, general mRNA isolation was performed using TRI reagent (Takara), and total mRNA was isolated from the cells. The absorbance of total mRNA was measured with a Tecan F200 Nanophotometer, and reverse transcription was performed using AccuPower RocketScript Cycle RT PreMix (Bioneer). Quantitative real-time PCR for CSF-1, E-Cadherin and 18S was performed using a StepOnePlus Real-Time PCR System and SYBR Green mix (Applied Biosystems) according to the manufacturer's manual.
In addition, the effect of the ND1-YL2 on the expression of E-cadherin, a tumor suppressor gene that plays an important role in cell-cell adhesion, was tested. Since SRC-1 protein is known to suppress the E-cadherin expression, the ND1-YL2 will upregulate the E-cadherin by degrading SRC-1.

SRC-3 = target: T1, SRC-3 (Homo sapiens, UniProt Q9Y6Q9); test: SRC-3 expression level in MDA-MB-231 cells by Western blot; format: cell-based; settings: 20 μM
T1 construct: endogenous in cells; host or cells: MDA-MB-231
Procedure: It was confirmed whether ND1-YL2 could selectively target and degrade SRC-1 over other SRC family members. Considering the structural similarity between SRC members, it can be predicted that ND1-YL2 will be able to bind to and degrade other members of the SRC family, such as SRC-3. […] To test this, TNBC MDA-MB-231 cells were treated with ND1-YL2 and the amounts of SRC-3 and SRC-1 were confirmed at the cellular level by Western blotting (FIG. 17).

T1 sequence (Q9Y6Q9 whole entry): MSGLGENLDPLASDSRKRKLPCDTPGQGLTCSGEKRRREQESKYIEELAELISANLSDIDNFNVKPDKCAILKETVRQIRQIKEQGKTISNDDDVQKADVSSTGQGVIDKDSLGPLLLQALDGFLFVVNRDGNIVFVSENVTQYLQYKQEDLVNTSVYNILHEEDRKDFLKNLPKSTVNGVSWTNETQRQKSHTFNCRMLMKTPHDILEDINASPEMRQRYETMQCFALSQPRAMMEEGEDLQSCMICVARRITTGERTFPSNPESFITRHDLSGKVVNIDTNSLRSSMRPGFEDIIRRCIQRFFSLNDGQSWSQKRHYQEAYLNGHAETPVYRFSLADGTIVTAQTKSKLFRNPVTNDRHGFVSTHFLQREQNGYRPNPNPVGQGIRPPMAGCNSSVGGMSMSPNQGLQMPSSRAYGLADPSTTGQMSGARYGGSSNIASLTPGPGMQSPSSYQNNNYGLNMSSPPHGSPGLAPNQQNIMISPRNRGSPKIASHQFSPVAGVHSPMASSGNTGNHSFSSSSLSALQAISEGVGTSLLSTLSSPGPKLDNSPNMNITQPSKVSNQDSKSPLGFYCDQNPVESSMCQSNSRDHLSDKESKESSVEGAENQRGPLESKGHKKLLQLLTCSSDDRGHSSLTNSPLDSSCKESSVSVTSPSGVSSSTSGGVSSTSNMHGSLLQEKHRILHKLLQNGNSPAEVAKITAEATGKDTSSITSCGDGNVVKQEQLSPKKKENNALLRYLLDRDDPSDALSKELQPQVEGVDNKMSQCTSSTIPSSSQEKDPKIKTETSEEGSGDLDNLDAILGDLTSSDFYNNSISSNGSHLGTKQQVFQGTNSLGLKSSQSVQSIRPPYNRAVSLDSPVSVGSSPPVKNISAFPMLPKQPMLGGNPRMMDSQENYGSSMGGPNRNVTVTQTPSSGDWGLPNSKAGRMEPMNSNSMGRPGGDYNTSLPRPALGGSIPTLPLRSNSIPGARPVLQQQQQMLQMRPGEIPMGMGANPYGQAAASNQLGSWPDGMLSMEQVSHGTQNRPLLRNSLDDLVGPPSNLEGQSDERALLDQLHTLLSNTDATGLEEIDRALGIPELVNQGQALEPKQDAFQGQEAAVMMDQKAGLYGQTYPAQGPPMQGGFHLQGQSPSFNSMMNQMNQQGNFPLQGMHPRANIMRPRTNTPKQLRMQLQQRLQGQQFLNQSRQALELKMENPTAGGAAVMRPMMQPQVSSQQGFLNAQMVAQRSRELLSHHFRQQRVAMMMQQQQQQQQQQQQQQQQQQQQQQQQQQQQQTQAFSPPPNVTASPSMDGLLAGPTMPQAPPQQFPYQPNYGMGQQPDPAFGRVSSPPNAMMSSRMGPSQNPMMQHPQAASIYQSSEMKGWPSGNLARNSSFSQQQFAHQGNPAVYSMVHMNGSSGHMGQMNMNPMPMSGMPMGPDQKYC

Compound: CC(C)C[C@H](NC(=O)[C@H](C)NC(=O)[C@H](C)NC(=O)[C@H](C)NC(=O)[C@H](C)NC(=O)[C@H](CC(C)C)NC(=O)[C@@H](N)CCCNC(=N)N)C(=O)N[C@@H](CC(C)C)C(=O)N1CCC[C@H]1C(=O)N1CCC[C@H]1C(=O)N[C@H](C(=O)N[C@@H](CCC(=O)O)C(=O)N[C@@H](CCC(N)=O)C(=O)N[C@@H](CC(=O)O)C(=O)N[C@@H](CC(C)C)C(=O)N[C@@]1(C)CCC/C=C\CCC[C@@](C)(C(=O)N[C@@H](Cc2ccc(O)cc2)C(N)=O)NC(=O)[C@H](CC2CCCCC2)NC(=O)[C@H](CC(C)C)NC(=O)[C@H](CCCCN)NC1=O)[C@@H](C)O [ND1-YL2] (H-RLAAAALLPPTEQDL[S5]KL[Cha][S5]Y-NH2; staple (Z) 16-20)
- Effect on E-cadherin expression (mRNA) (E-cadherin): dose-dependent increase
- Degradation effect on SRC-3 (SRC-3): no degradation effect was observed
